From US20060127423A1, “Organic compounds” (priority 1998, published 2006)
In brackets after ≈: the same amount, converted by molar mass.

How the values were obtained:
[1] = previously reported; cited from earlier work
[2] = Solubility of epothilone B in various solvent systems; assay type: physicochemical
Protocol: If not indicated otherwise all solubility data refer to T=22° C.

[3] = Stability of PEG-containing infusion concentrates: degradation products by HPLC; assay type: physicochemical
Protocol: The stability of aqueous versus nonaqueous polyethyleneglycol infusion concentrates comprising epothilone B at different concentration and various temperatures is determined. Typically, a known amount of epothilone B is dissolved in 1.0 ml of each of the various solvent systems and each solution is sterile filtered and charged to 1 ml white-glass vials with grey rubber stoppers and grey flip-off caps. The stability is analyzed by determining formation of degradation products in each of the infusion concentrates as a function of time and temperature. Each sample is analyzed by HPLC, the sample is prepared by diluting the concentrate with an aqueous medium.

[4] = as above; assay type: physicochemical; settings: ethanol/water 59:41 (w/w), 5 mg/ml, 2-8° C.

## C/C(=C\c1csc(C)n1)[C@@H]1C[C@@H]2O[C@@H]2CCC[C@H](C)[C@H](O)[C@@H](C)C(=O)C(C)(C)[C@@H](O)CC(=O)O1 [epothilone A]
[1]
  Aqueous solubility: 940 µg/mL

## C/C(=C\c1csc(C)n1)[C@@H]1C[C@@H]2O[C@]2(C)CCC[C@H](C)[C@H](O)[C@@H](C)C(=O)C(C)(C)[C@@H](O)CC(=O)O1 [epothilone B]
[2]; EtOH/H2O (v/v) 10/90, T=22° C.
  Solubility: 1100 µg/mL (≈ 2170 µM)
[2]; EtOH/H2O (v/v) 20/80, T=22° C.
  Solubility: 1300 µg/mL (≈ 2560 µM)
[2]; EtOH/H2O (v/v) 30/70, T=22° C.
  Solubility: 4100 µg/mL (≈ 8080 µM)
[2]; EtOH/H2O (v/v) 50/50, T=22° C.
  Solubility: 27000 µg/mL (≈ 53200 µM)
[2]; EtOH/H2O (v/v) 100/0, T=22° C.
  Solubility: >50000 µg/mL
[2]; H2O (pH 6.0), 4° C.
  Solubility: 190 µg/mL (≈ 374 µM)
[2]; H2O (pH 6.0), T=22° C.
  Solubility: 160 µg/mL (≈ 315 µM)
[2]; H2O, 0.9% glucose, T=22° C.
  Solubility: 160 µg/mL (≈ 315 µM)
[2]; H2O, 5% glucose, T=22° C.
  Solubility: 160 µg/mL (≈ 315 µM)
[2]; H2O, 5% poloxamer 188, T=22° C.
  Solubility: 230 µg/mL (≈ 453 µM)
[2]; H2O, 15% glycerin, T=22° C.
  Solubility: 190 µg/mL (≈ 374 µM)
[2]; PEG 300/H2O (v/v) 30/70, T=22° C.
  Solubility: 900 µg/mL (≈ 1770 µM)
[2]; PEG 300/H2O (v/v) 50/50, T=22° C.
  Solubility: 10000 µg/mL (≈ 19700 µM)
[2]; PEG 300/H2O (v/v) 70/30, T=22° C.
  Solubility: 2500 µg/mL (≈ 4920 µM)
[2]; PEG 300/H2O (v/v) 100/0, T=22° C.
  Solubility: 12000 µg/mL (≈ 23600 µM)
[2]; PEG 400/H2O (v/v) 30/70, T=22° C.
  Solubility: 800 µg/mL (≈ 1580 µM)
[2]; PEG 400/H2O (v/v) 50/50, T=22° C.
  Solubility: 11000 µg/mL (≈ 21700 µM)
[2]; PEG 400/H2O (v/v) 70/30, T=22° C.
  Solubility: 2300 µg/mL (≈ 4530 µM)
[2]; PEG 400/H2O (v/v) 100/0, T=22° C.
  Solubility: 30000 µg/mL (≈ 59100 µM)
[2]; PEG/water, propyleneglycol/water, or EtOH/water mixtures
  Solubility relative to water: significantly higher solubility
[2]; Phosphate buffer pH 7.4, 4° C.
  Solubility: 190 µg/mL (≈ 374 µM)
[2]; Phosphate buffer pH 7.4, T=22° C.
  Solubility: 160 µg/mL (≈ 315 µM)
[2]; Propylene glycol/H2O (v/v) 30/70, T=22° C.
  Solubility: 600 µg/mL (≈ 1180 µM)
[2]; Propylene glycol/H2O (v/v) 50/50, T=22° C.
  Solubility: 1600 µg/mL (≈ 3150 µM)
[2]; Propylene glycol/H2O (v/v) 70/30, T=22° C.
  Solubility: 10400 µg/mL (≈ 20500 µM)
[2]; Propylene glycol/H2O (v/v) 100/0, T=22° C.
  Solubility: 26000 µg/mL (≈ 51200 µM)
[2]; water at neutral pH
  Solubility in water: about 160 mg/l
[3]; PEG 300, 1 mg/ml, 3 months, 2-8° C.
  Proportion of degradation products: <0.1
[3]; PEG 300/water 90:10 (w/w), 15 mg/ml, 7 months, 2-8° C.
  Proportion of degradation products: <0.1
[3]; PEG 300/water 90:10 (w/w), 15 mg/ml, 7 months, 25° C.
  Proportion of degradation products: 1.0
[3]; PEG 400, 1 mg/ml, 3 months, 2-8° C.
  Proportion of degradation products: <0.1
[3]; PEG 400, 1 mg/ml, 3 months, 25° C.
  Proportion of degradation products: 0.2
[3]; PEG 400/water 90:10 (w/w), 1 mg/ml, 3 months, 2-8° C.
  Proportion of degradation products: <0.1
[3]; PEG 400/water 90:10 (w/w), 1 mg/ml, 3 months, 25° C.
  Proportion of degradation products: 0.4
[4]; 1 month
  Proportion of degradation products: 0.3
[4]; 5 months
  Proportion of degradation products: 0.3
[4]; initial
  Proportion of degradation products: <0.1
